Article PMC9706920, “Aryloxypropanolamine targets amyloid aggregates and reverses Alzheimer-like phenotypes in Alzheimer mouse models” (Alzheimer's Research & Therapy, 2022)

Tests used:
[1] = BBB-PAMPA; type: in vitro ADME; conditions: PAMPA, pH 7.4
Protocol: Commercially available Double-Sink PAMPA (Pion® Double sink) assay was performed using a two compartment 96-well microtiter plate and protocols specified by the manufacturer. […] Stock solutions of controls and YIAD002 were dissolved in DMSO (10 mM) and subsequently diluted to 200-fold in pION buffer (pH 7.4) to 50 μM. The donor plate of the PAMPA sandwich was loaded with 50 μM solutions, and after wetting the artificial membrane with BBB lipid solution, the acceptor plate was loaded with acceptor sink buffer. Then, the acceptor plate was placed on the donor plate and incubated at 25°C for 4 h. Compound concentration in the reference, donor, and acceptor plates were measured on a UV plate.

[2] = target: T1, Aβ(1–42) aggregates (Homo sapiens, UniProt P05067); assay: ThT fluorescence Aβ(1–42) disaggregation assay; type: biochemical; conditions: for Decrease of fibrillar Aβ(1–42) aggregates (ThT fluorescence): Aβ(1–42) 25 μM pre-aggregated 37°C 3 days, compound added for additional 3 days, concentration of the printed value not stated; for EC50: pre-aggregated Aβ(1–42) 25 μM, 3 + 3 days, 37°C
T1 construct: made in house; host or cells: chemical synthesis (Fmoc solid phase peptide synthesis)
Protocol: (§1) ThT fluorescence was used to assess the in vitro inhibition of Aβ(1–42) and disaggregation of Aβ(1–42), Aβ(1–40), Aβ(pE3-42), recombinant tau K18, and tau repeats R1, R2, R3, R4 by YIAD compounds. In house synthetic Aβ(1–42) was dissolved in DMSO (1 mM, 100% DMSO) and diluted to 20-fold in deionized water to make 50 μM Aβ(1–42) stocks (5% DMSO). YIAD compounds were first dissolved in DMSO (100 mM, 100% DMSO) and serially diluted with deionized water to make YIAD stocks with concentrations of 1, 10, 100, and 1000 μM (10% DMSO). For the Aβ(1–42) inhibition assay, monomeric Aβ(1–42) stocks and YIAD stocks were co-incubated at 37°C for 3 days. For Aβ(1–42) disaggregation assay, monomeric Aβ(1–42) stocks were preincubated at 37°C for three days to form Aβ(1–42) aggregates, and subsequently, YIAD stocks were added for an additional 3 days. For Aβ(1-40) disaggregation assays, Aβ(1–40) (50 μM, 5% DMSO) was preincubated at 37°C for 3 days to induce aggregation, and co-incubated with YIAD001 and YIAD002 for an additional 3 days. For Aβ(pE3-42) disaggregation assays, in house synthetic Aβ(pE3-42) (50 μM, 5% DMSO) was preincubated at 37°C for 1 day and co-incubated with YIAD002 for an additional 3 days. For tau K18 disaggregation assay, recombinant tau K18 fragments (35 μM) were dissolved in PBS with 0.1 mg/mL of heparin and 100 μM of DTT, then pre-aggregated at 37°C for 3 days. Then, YIAD stocks were added to aggregated K18 fragments for an additional 3 days. For tau repeat disaggregation assays, tau repeats (R1, R2, R3, R4) (35 μM) were dissolved in PBS with 0.1 mg/mL of heparin and 100 μM of DTT, then pre-aggregated at 37°C for 1 day. Then, YIAD002 was added to aggregated repeats for an additional 3 days. Prior to fluorescence intensity measurement, ThT solution (5 μM) was prepared by dissolving ThT, purchased from Sigma-Aldrich (MO, USA) in 50 mM glycine buffer (pH 8.5). To quantify the effect of inhibition and disaggregation, 25 μL of all samples and 75 μL of ThT solution were loaded into a half-area 96-well black plate in triplicate.

[3] = target: T2, Aβ(1–42) (Homo sapiens, UniProt P05067); assay: ThT fluorescence Aβ(1–42) aggregation inhibition assay; type: biochemical; conditions: for Inhibition of Aβ(1–42) fibrillation (ThT fluorescence): compounds at 0.5, 5, 50, 500 μM co-incubated with monomeric Aβ(1–42) 25 μM, 37°C, 3 days, concentration of the printed value not stated
T2 construct: Synthesized monomeric Aβ(1–42), […]; […]; IA; made in house; host or cells: chemical synthesis (Fmoc solid phase peptide synthesis)
Protocol: as §1

[4] = system: 5XFAD mice; assay: 6E10 immunohistochemical staining of amyloid plaques in 5XFAD mice after oral administration; type: in vivo, mouse; conditions: 50 mg/kg/day via drinking water, 5 weeks, 4.5-month-old female 5XFAD mice, vs vehicle
Protocol: To test the in vivo efficacy of YIAD001 and YIAD002, female 5XFAD mice (n = 25) and female wildtype mice (n = 7) were assessed at the age of 4.5 months. YIAD compounds were dissolved in DMSO and diluted in drinking water to a final concentration of 50 mg/kg/day (5% DMSO, 5% Tween) for oral administration. The three compounds, YIAD001, YIAD002, and YIAD003, were freely administered via drinking water to 4.5-month-old 5XFAD mice (n = 6 for each group) for 5 weeks. As a control, 5% DMSO, 5% Tween in drinking water was provided ad libitum to littermate 5XFAD mice (n = 7) and wildtype mice (n = 7) for 5 weeks.
After the administration period, the mice were deeply anaesthetized with 4% avertin through intraperitoneal injection and transcardially perfused with 0.9% saline. Subsequently, the mice were sacrificed for brain excision. Each collected brain was divided through the mid-sagittal section; the hippocampal and cortical regions were dissected from one half and stored at −80°C for subsequent brain lysates, while the other half was immersed in 4% paraformaldehyde (pH 7.4) for 24 h and 30% sucrose for 48 h at 4°C and subsequently deep-froze at −80°C for immunohistochemistry.
Coronal hippocampal sections of 5XFAD mice brains (35 μm) were cut with a Cryostat (Leica, CM1860) and mounted onto glass slides. Antigen retrieval was performed by submerging slides in 1% SDS and unspecific binding was blocked through incubation in 20% horse serum in PBS for 1 h at RT. Aβ deposits were visualized through immunolabeling by anti-6E10 antibody (1:200 in PBS with 5% horse serum, Biolegend 803003) and detection by fluorescent secondary antibody (1:200 in PBS, IgG Alexa 488). Brain sections were additionally stained with Hoechst 33342. Fluorescent images of the brain sections were taken on a Leica DM2500 fluorescence microscope. Amyloid plaques were quantified using Image-J software (NIH).

T1 sequence (P05067 672-713 limits assumed): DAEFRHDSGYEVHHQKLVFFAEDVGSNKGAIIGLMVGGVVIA
T2 sequence (P05067 672-713 limits assumed): as above

## CNC(=C[N+](=O)[O-])NCCSCc1ccc(CN(C)C)o1 [ranitidine, reference compound]
[1]; 4 h, 50 μM
  Effective permeability coefficient Pe: 0 10^−6 cm/s

## Cl.OC(COc1ccc(Br)cc1)CN1CCCC1 (stereo not shown)
other
  melting point: 176.9 to 177.7 °C

## CC(C)(C)c1ccc(OCC(O)CN2CCOCC2)cc1.Cl (stereo not shown)
other
  melting point: 197.9 to 198.3 °C

## COc1ccc(OCC(O)CN2CCCCC2)cc1.Cl (stereo not shown)
other
  melting point: 169.3 to 169.9 °C

## Cl.OC(COc1ccc(Br)cc1)CN1CCOCC1 (stereo not shown)
other
  melting point: 172.1 to 172.7 °C

## CC(C)(C)c1ccc(OCC(O)CN2CCCCC2)cc1.Cl (stereo not shown) [YIAD008, 1-(3-(4-(Tert-butyl)phenoxy)-2-hydroxypropyl)piperidin-1-ium chloride]
[2]
  Decrease of fibrillar Aβ(1–42) aggregates (ThT fluorescence): 59.89%
  EC50: 360 µM
[3]
  Inhibition of Aβ(1–42) fibrillation (ThT fluorescence): 70.69%
other
  melting point: 201.7 to 202.2 °C

## CC(C)(C)c1ccc(OCC(O)CN2CCCC2)cc1.Cl (stereo not shown) [YIAD010, 1-(3-(4-(Tert-butyl)phenoxy)-2-hydroxypropyl)pyrrolidin-1-ium chloride]
[2]
  Decrease of fibrillar Aβ(1–42) aggregates (ThT fluorescence): 83.56%
  EC50: 138 µM
[3]
  Inhibition of Aβ(1–42) fibrillation (ThT fluorescence): 75.96%
other
  melting point: 139.9 to 140.4 °C

## Cl.OC(COc1ccc(Br)cc1)CN1CCCCC1 (stereo not shown)
other
  melting point: 178.1 to 178.6 °C

## CC(=O)[C@H]1CC[C@H]2[C@@H]3CCC4=CC(=O)CC[C@]4(C)[C@H]3CC[C@]12C [progesterone, reference compound]
[1]
  Papp at 4 h, 50 μM: 50.9 ×10⁻⁶ cm/s

## COc1ccc(OCC(O)CN2CCOCC2)cc1.Cl (stereo not shown) [YIAD003, 4-(2-Hydroxy-3-(4-methoxyphenoxy)propyl)morpholin-4-ium chloride]
[4]
  Number of 6E10-stained plaques: did not cause any change
  Plaque area: slight tendency of an increase
[3]; inhibitory interaction with Aβ(1–42) aggregation
  Activity in anti-Aβ screen: inactive
other
  melting point: 160.2 to 160.5 °C
